Laboratory results reported in US10703733B2, “MCL-1 inhibitors” (Gilead Sciences, Inc., priority 2018, dated 2020).
Read-outs that look alike come from different tables or passages of the source.

Legend:
SKBR3 cells = assay: SKBR3 Cell Viability Assay (CellTiter Glo); type: cell-based; settings: CellTiter Glo luminescence, read-out: MCL-1 CV SKBR3 EC50
Procedure, shortened: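 Viability read as CellTiter Glo luminescence after 72 h of compound exposure at 37° C./5% CO2, using 6,000 SKBR3 cells per well in McCoy 5A with 10% FBS. Percent inhibition scaled between DMSO wells and 10 μM puromycin wells.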

[1] = target: MCL-1/Bim interaction (recombinant human MCL-1 protein, residues 171-327; biotinylated human Bim peptide, residues 51-76) (Homo sapiens (Human), UniProt Q07820); assay: MCL-1/Bim Binding AlphaLISA Assay; settings: 0.0625 nM 6xHis-Mcl-1 (171-327), 0.0625 nM biotinylated-Bim peptide
Procedure, shortened: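 Protein 0.0625 nM + cpd, 1 h; add biotin-Bim 0.0625 nM, 2 h; acceptor beads 1 h; donor beads 1 h; AlphaScreen read. Buffer 20 mM Hepes pH 7.5, 150 mM NaCl, 1 mM DTT.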

Sequence of MCL-1/Bim interaction (recombinant human MCL-1 protein, residues 171-327; biotinylated human Bim peptide, residues 51-76) (Q07820 171-327): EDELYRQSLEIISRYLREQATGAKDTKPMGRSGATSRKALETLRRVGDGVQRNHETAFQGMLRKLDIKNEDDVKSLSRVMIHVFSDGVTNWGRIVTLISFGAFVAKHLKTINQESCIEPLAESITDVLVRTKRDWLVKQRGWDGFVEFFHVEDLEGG

Compound | EC50 (SKBR3 cells; Homo sapiens, SK-BR-3, 72 h) | IC50 [1] | EC50 (SKBR3 cells; 72 hours)
CCC(=O)N[S@@]1(=O)=NC(=O)c2ccc3c(c2)N(C[C@@H]2CC[C@H]2[C@@H](OCCN2CCN(C)CC2)/C=C/CCC1)C[C@@]1(CCCc2cc(Cl)ccc21)CO3 [Example 68] | 6300 nM | 46.9 nM | –
CC#CC(=O)N[S@@]1(=O)=NC(=O)c2ccc3c(c2)N(C[C@@H]2CC[C@H]2[C@@H](OC)/C=C/CCC1)C[C@@]1(CCCc2cc(Cl)ccc21)CO3 [Example 33] | 7440 nM | 2.9 nM | –
CO[C@H]1/C=C/C[C@H](C)C[S@@](=O)(NC(=O)c2cnn(C(C)C)c2)=NC(=O)c2ccc3c(c2)N(C[C@@H]2CC[C@H]21)C[C@@]1(CCCc2cc(Cl)ccc21)CO3 [Example 123] | 114 nM | 0.071 nM | –
CO[C@H]1/C=C/C[C@H](C)C[S@@](=O)(NC(=O)N[C@H]2C[C@@H]2CO)=NC(=O)c2ccc3c(c2)N(C[C@@H]2CC[C@H]21)C[C@@]1(CCCc2cc(Cl)ccc21)CO3 [Example 171] | 130 nM | 0.033 nM | –
CO[C@H]1/C=C/C[C@H](C)C[S@@](=O)(NC(=O)N[C@H]2C[C@H]2C)=NC(=O)c2ccc3c(c2)N(C[C@@H]2CC[C@H]21)C[C@@]1(CCCc2cc(Cl)ccc21)CO3 [Example 159] | 144 nM | 0.087 nM | –
CO[C@H]1/C=C/CCC[S@@](=O)(NC(=O)NCc2cnccn2)=NC(=O)c2ccc3c(c2)N(C[C@@H]2CC[C@H]21)C[C@@]1(CCCc2cc(Cl)ccc21)CO3 [Example 80] | 1060 nM | 0.3 nM | –
CO[C@H]1/C=C/C[C@H](C)C[S@@](=O)(NC(=O)N2CCC(C(F)F)CC2)=NC(=O)c2ccc3c(c2)N(C[C@@H]2CC[C@H]21)C[C@@]1(CCCc2cc(Cl)ccc21)CO3 [Example 258] | 195 nM | 0.117 nM | –
CO[C@H]1/C=C/C[C@H](C)[C@@H](C)[S@@](=O)(NC(=O)c2cc3n(c2)CCOC3)=NC(=O)c2ccc3c(c2)N(C[C@@H]2CC[C@H]21)C[C@@]1(CCCc2cc(Cl)ccc21)CO3 [Example 137] | 104 nM | 0.491 nM | –
CO[C@H]1/C=C/CCC[S@@](=O)(NC(=O)CCc2cccnc2)=NC(=O)c2ccc3c(c2)N(C[C@@H]2CC[C@H]21)C[C@@]1(CCCc2cc(Cl)ccc21)CO3 [Example 40] | 328 nM | 0.1 nM | –
CO[C@H]1/C=C/C[C@H](C)C[S@@](=O)(NC(=O)C2CC3(CCOC3)C2)=NC(=O)c2ccc3c(c2)N(C[C@@H]2CC[C@H]21)C[C@@]1(CCCc2cc(Cl)ccc21)CO3 (some centres unmarked) [Example 125] | 88.7 nM | 0.074 nM | –
CO[C@H]1/C=C/C[C@H](C)C[S@@](=O)(NC(=O)N[C@H]2C[C@@](O)(C(F)(F)F)C2)=NC(=O)c2ccc3c(c2)N(C[C@@H]2CC[C@H]21)C[C@@]1(CCCc2cc(Cl)ccc21)CO3 [Example 453] | 96.7 nM | 0.092 nM | –
CO[C@H]1/C=C/C[C@H](C)C[S@@](=O)(NC(=O)c2cc3n(c2)C[C@@H](C)OC3)=NC(=O)c2ccc3c(c2)N(C[C@@H]2CC[C@H]21)C[C@@]1(CCCc2cc(Cl)ccc21)CO3 [Example 168] | 74.2 nM | 0.222 nM | –
CO[C@H]1/C=C/C[C@H](C)C[S@@](=O)(NC(=O)C2CC3(CCC3)C2)=NC(=O)c2ccc3c(c2)N(C[C@@H]2CC[C@H]21)C[C@@]1(CCCc2cc(Cl)ccc21)CO3 [Example 436] | 753 nM | 0.886 nM | –
COC[C@H]1C[C@@H]1NC(=O)N[S@@]1(=O)=NC(=O)c2ccc3c(c2)N(C[C@@H]2CC[C@H]2[C@@H](OC)/C=C/C[C@H](C)C1)C[C@@]1(CCCc2cc(Cl)ccc21)CO3 [Example 303] | 22.8 nM | 0.045 nM | –
COCCn1cc(C(=O)N[S@@]2(=O)=NC(=O)c3ccc4c(c3)N(C[C@@H]3CC[C@H]3[C@@H](OC)/C=C/C[C@H](C)C2)C[C@@]2(CCCc3cc(Cl)ccc32)CO4)cn1 [Example 120] | 106 nM | 0.167 nM | –
CO[C@H]1/C=C/CCC[S@@](=O)(NC(=O)CCc2cnoc2)=NC(=O)c2ccc3c(c2)N(C[C@@H]2CC[C@H]21)C[C@@]1(CCCc2cc(Cl)ccc21)CO3 [Example 57] | 596 nM | 0.2 nM | –
CO[C@H]1/C=C/C[C@H](C)C[S@@](=O)(NC(=O)N2CC(Oc3ccncc3)C2)=NC(=O)c2ccc3c(c2)N(C[C@@H]2CC[C@H]21)C[C@@]1(CCCc2cc(Cl)ccc21)CO3 [Example 275] | 90.4 nM | 0.053 nM | –
CO[C@H]1/C=C/CCC[S@@](=O)(NC(=O)NC(C)(C)C(F)(F)F)=NC(=O)c2ccc3c(c2)N(C[C@@H]2CC[C@H]21)C[C@@]1(CCCc2cc(Cl)ccc21)CO3 [Example 34] | 3350 nM | 2 nM | –
CO[C@H]1/C=C/C[C@H](C)C[S@@](=O)(NC(=O)C2CC(O)(C(F)(F)F)C2)=NC(=O)c2ccc3c(c2)N(C[C@@H]2CC[C@H]21)C[C@@]1(CCCc2cc(Cl)ccc21)CO3 (some centres unmarked) [Example 198] | 104 nM | 0.043 nM | –

Compound | EC50 (SKBR3 cells; Homo sapiens, SK-BR-3, 72 h) | IC50 [1] | EC50 (SKBR3 cells; 72 hours)
CO[C@H]1/C=C/C[C@H](C)C[S@@](=O)(NC(=O)c2cc(CN3CCN(C(C)C)[C@H](C)C3)n(C)c2)=NC(=O)c2ccc3c(c2)N(C[C@@H]2CC[C@H]21)C[C@@]1(CCCc2cc(Cl)ccc21)CO3 [Example 284] | 54.7 nM | 0.061 nM | –
CC[C@H]1C/C=C/[C@H](OC)[C@@H]2CC[C@H]2CN2C[C@@]3(CCCc4cc(Cl)ccc43)COc3ccc(cc32)C(=O)N=[S@](=O)(NC(=O)c2cn(C)nc2OC)C1 [Example 220] | 97.8 nM | 0.122 nM | –
COc1nn(C)cc1C(=O)N[S@@]1(=O)=NC(=O)c2ccc3c(c2)N(C[C@@H]2CC[C@H]2[C@@H](OC)/C=C/[C@H](OC(F)F)[C@H](C)C1)C[C@@]1(CCCc2cc(Cl)ccc21)CO3 [Example 400] | 530 nM | 0.058 nM | –
CO[C@H]1/C=C/C[C@H](C)C[S@@](=O)(NC(=O)c2cn(C)nc2OCCN2CCOCC2)=NC(=O)c2ccc3c(c2)N(C[C@@H]2CC[C@H]21)C[C@@]1(CCCc2cc(Cl)ccc21)CO3 [Example 319] | 19.9 nM | 0.038 nM | –
CO[C@H]1/C=C/C[C@H](C)C[S@@](=O)(NC(=O)c2cnn(C(F)F)c2)=NC(=O)c2ccc3c(c2)N(C[C@@H]2CC[C@H]21)C[C@@]1(CCCc2cc(Cl)ccc21)CO3 [Example 119] | 93.8 nM | 0.145 nM | –
CO[C@H]1/C=C/CCC[S@@](=O)(NC(=O)Cc2ncccn2)=NC(=O)c2ccc3c(c2)N(C[C@@H]2CC[C@H]21)C[C@@]1(CCCc2cc(Cl)ccc21)CO3 [Example 30] | 1840 nM | 0.6 nM | –
COc1nn(C)cc1C(=O)N[S@@]1(=O)=NC(=O)c2ccc3c(c2)N(C[C@@H]2CC[C@H]2[C@@H](OC)CC[C@H](O)[C@H](C)C1)C[C@@]1(CCCc2cc(Cl)ccc21)CO3 [Example 298] | 71.9 nM | 0.016 nM | –
CNC(=O)N[S@@]1(=O)=NC(=O)c2ccc3c(c2)N(C[C@@H]2CC[C@H]2[C@@H](OC)/C=C/C[C@H](C)C1)C[C@@]1(CCCc2cc(Cl)ccc21)CO3 [Example 454] | 146 nM | 0.098 nM | –
CO[C@H]1/C=C/C[C@H](C)C[S@@](=O)(NC(=O)c2cc(C)n(C)c2)=NC(=O)c2ccc3c(c2)N(C[C@@H]2CC[C@H]21)C[C@@]1(CCCc2cc(Cl)ccc21)CO3 [Example 413] | 130 nM | 0.478 nM | –
COC[C@@H]1Cn2cc(C(=O)N[S@@]3(=O)=NC(=O)c4ccc5c(c4)N(C[C@@H]4CC[C@H]4[C@@H](O)/C=C/C[C@H](C)C3)C[C@@]3(CCCc4cc(Cl)ccc43)CO5)cc2CO1 [Example 326] | 52.6 nM | 0.076 nM | –
CC[C@H]1C/C=C/[C@H](OC)[C@@H]2CC[C@H]2CN2C[C@@]3(CCCc4cc(Cl)ccc43)COc3ccc(cc32)C(=O)N=[S@](=O)(NC(=O)c2cnn(C)c2)C1 [Example 201] | 103 nM | 0.042 nM | –
CO[C@H]1/C=C/CCC[S@@](=O)(NC(=O)C#CC(C)(C)C)=NC(=O)c2ccc3c(c2)N(C[C@@H]2CC[C@H]21)C[C@@]1(CCCc2cc(Cl)ccc21)CO3 [Example 36] | 10000 nM | 8.1 nM | –
CO[C@H]1/C=C/C[C@H](C)C[S@@](=O)(NC(=O)N2CC(N3CCOCC3)C2)=NC(=O)c2ccc3c(c2)N(C[C@@H]2CC[C@H]21)C[C@@]1(CCCc2cc(Cl)ccc21)CO3 [Example 349] | 33.7 nM | 0.026 nM | –
CO[C@H]1/C=C/C[C@H](C)C[S@@](=O)(NC(=O)[C@H]2Cc3ccccc3CO2)=NC(=O)c2ccc3c(c2)N(C[C@@H]2CC[C@H]21)C[C@@]1(CCCc2cc(Cl)ccc21)CO3 (single isomer, unassigned) [Example 143] | 219 nM | 0.173 nM | –
COC1CCN(C2CN(C(=O)N[S@@]3(=O)=NC(=O)c4ccc5c(c4)N(C[C@@H]4CC[C@H]4[C@@H](OC)/C=C/C[C@H](C)C3)C[C@@]3(CCCc4cc(Cl)ccc43)CO5)C2)CC1 [Example 287] | 25 nM | 0.029 nM | –
CO[C@H]1/C=C/C[C@H](C)C[S@@](=O)(NC(=O)N[C@@H]2C[C@H]2CC(F)F)=NC(=O)c2ccc3c(c2)N(C[C@@H]2CC[C@H]21)C[C@@]1(CCCc2cc(Cl)ccc21)CO3 (single isomer, unassigned) [Example 281] | – | 0.154 nM | 184 nM
CO[C@H]1/C=C/C[C@H](C)C[S@@](=O)(NC(=O)N2CC3(COCCO3)C2)=NC(=O)c2ccc3c(c2)N(C[C@@H]2CC[C@H]21)C[C@@]1(CCCc2cc(Cl)ccc21)CO3 [Example 248] | 55.3 nM | 0.042 nM | –
CO[C@H]1/C=C/CCC[S@@](=O)(NC(=O)CCc2ncccn2)=NC(=O)c2ccc3c(c2)N(C[C@@H]2CC[C@H]21)C[C@@]1(CCCc2cc(Cl)ccc21)CO3 [Example 44] | 376 nM | 0.1 nM | –
